Test results taken from US12441718B2, “Selective angiotensin II compounds” (VICORE PHARMA AB, priority 2021, dated 2025).
Read-outs that look alike come from different tables or passages of the source.

Tests used:
CYP2B6 = biological target: T1, CYP2B6 (Homo sapiens, UniProt P20813); experiment: CYP inhibition in human liver microsomes (Eurofins ITEMG232); assay type: in vitro ADME; conditions: probe bupropion, substrate bupropion, read-out: CYP2B6 Inh %
T1 construct: isoform-specific substrates incubated with human liver microsomes; tissue Eurofins ITEMG232 (protocol number); host or cells: human liver microsomes
T1 sequence (P20813 1-491): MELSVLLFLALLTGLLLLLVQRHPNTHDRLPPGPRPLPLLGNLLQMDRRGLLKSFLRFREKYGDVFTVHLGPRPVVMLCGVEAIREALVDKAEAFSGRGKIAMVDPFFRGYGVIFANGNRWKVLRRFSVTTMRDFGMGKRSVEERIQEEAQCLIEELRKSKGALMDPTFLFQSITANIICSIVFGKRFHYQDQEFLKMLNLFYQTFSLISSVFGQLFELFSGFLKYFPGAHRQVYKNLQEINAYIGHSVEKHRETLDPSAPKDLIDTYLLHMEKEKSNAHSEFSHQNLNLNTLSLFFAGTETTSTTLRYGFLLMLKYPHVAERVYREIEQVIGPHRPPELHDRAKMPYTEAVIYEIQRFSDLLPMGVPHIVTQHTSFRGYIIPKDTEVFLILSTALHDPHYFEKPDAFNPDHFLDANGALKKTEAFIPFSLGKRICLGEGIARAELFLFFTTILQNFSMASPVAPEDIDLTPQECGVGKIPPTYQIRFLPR

CYP3A4 = CYP3A4 (Homo sapiens, UniProt P08684); experiment: CYP inhibition in human liver microsomes (Eurofins ITEMG232), midazolam substrate; assay type: in vitro ADME; parameters: isoform-specific substrates incubated with human liver microsomes; tissue Eurofins ITEMG232 (protocol number); host or cells: human liver microsomes; conditions: human, probe midazolam, read-out: CYP3A4 midazolam Inh %
CYP2D6 = biological target: T2, CYP2D6 (Homo sapiens, UniProt P10635); experiment: CYP inhibition in human liver microsomes (Eurofins ITEMG232); assay type: in vitro ADME; conditions: probe dextromethorphan, substrate dextromethorphan, read-out: CYP2D6 Inh %
T2 construct: isoform-specific substrates incubated with human liver microsomes; tissue Eurofins ITEMG232 (protocol number); host or cells: human liver microsomes

CYP2C8 = biological target: T3, CYP2C8 (Homo sapiens, UniProt P10632); experiment: as above; assay type: in vitro ADME; conditions: human, probe paclitaxel and amodiaquine, substrate paclitaxel and amodiaquine, read-out: CYP2C8 Inh %
T3 construct: isoform-specific substrates incubated with human liver microsomes; tissue Eurofins ITEMG232 (protocol number); host or cells: human liver microsomes
T3 sequence (P10632 1-490): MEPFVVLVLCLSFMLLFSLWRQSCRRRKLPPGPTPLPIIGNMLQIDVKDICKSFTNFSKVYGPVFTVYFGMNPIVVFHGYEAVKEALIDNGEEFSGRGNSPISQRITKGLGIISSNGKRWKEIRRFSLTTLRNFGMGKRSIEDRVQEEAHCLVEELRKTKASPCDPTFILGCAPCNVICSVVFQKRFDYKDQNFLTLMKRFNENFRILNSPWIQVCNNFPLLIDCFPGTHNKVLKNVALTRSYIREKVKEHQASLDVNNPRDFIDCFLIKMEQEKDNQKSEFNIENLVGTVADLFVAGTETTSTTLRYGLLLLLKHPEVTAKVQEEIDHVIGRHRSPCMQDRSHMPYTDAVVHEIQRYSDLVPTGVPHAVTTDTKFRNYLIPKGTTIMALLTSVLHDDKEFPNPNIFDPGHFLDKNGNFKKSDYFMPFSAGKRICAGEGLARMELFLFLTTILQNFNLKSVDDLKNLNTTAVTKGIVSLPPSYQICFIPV

[1] = Metabolic stability in pooled human liver microsomes; assay type: in vitro ADME; conditions: human, pooled human liver microsomes, pooled human liver microsomes 0.5 mg/mL, 1 μM test compound, 37° C., * rows = mean of two runs
Method: Pooled human liver microsomes in PBS at a concentration of 0.5 mg/mL was incubated with or without 1 mM NADPH for 70 min at 37° C. Test compound was added after 10 minutes to a final concentration of 1 μM. Samples were withdrawn at 0, 5, 15 and 60 minutes and added to test tubes containing acetonitrile, to stop the reaction, and with terfenadine, used as internal standard. After centrifugation at 10 000×g for 5 minutes the supernatant was diluted 1:1 with 1% formic acid. Samples were separated on a reverse phase column and detected by triple quadrupole MSMS (Agilant model 6540). The concentration of the parent compound at the different time points was measured with an external standard curve using terfenadine as internal standard and the initial metabolic rate in the presence or absence of NADPH calculated.

CYP2C19 = biological target: T4, CYP2C19 (Homo sapiens, UniProt P33261); experiment: CYP inhibition in human liver microsomes (Eurofins ITEMG232); assay type: in vitro ADME; conditions: human, probe omeprazole, substrate omeprazole, read-out: CYP2C19 Inh %
T4 construct: isoform-specific substrates incubated with human liver microsomes; tissue Eurofins ITEMG232 (protocol number); host or cells: human liver microsomes

[2] = biological target: T5, human recombinant AT2 receptor (Homo sapiens, UniProt P50052); experiment: Binding to AT2 receptor, radiometric scintillation assay (Eurofins ITEM26); conditions: ligand 125I CGP 42112A, * rows = mean of runs; for Ki: seven-point dose-response curve; for IC50: test compounds at 1, 10, 100 and 1000 nM, read-out: AT2 GraFit IC50
T5 construct: purchased Eurofins ITEM26 (protocol number)
T5 sequence (P50052 1-363): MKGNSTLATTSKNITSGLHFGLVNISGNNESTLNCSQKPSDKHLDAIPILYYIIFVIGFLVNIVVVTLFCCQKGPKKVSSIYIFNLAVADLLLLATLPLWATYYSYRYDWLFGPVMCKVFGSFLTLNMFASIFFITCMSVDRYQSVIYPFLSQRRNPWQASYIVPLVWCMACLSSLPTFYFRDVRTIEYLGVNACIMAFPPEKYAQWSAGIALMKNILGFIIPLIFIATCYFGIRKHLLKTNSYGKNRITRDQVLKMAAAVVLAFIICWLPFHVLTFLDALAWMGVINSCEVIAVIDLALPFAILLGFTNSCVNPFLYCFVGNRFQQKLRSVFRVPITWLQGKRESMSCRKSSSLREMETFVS

CYP1A2 = biological target: T6, CYP1A2 (Homo sapiens, UniProt P05177); experiment: in vitro; assay type: in vitro ADME; conditions: human, microsomes, human liver microsomes, substrate phenacetin, read-out: CYP1A2 Inh %
T6 construct: isoform-specific substrates incubated with human liver microsomes; tissue Eurofins ITEMG232 (protocol number); host or cells: human liver microsomes
Method: The following substrates were used; CYP1A phenacetin, CYP2B36 bupropion, CYP2C8 paclitaxel and amodiaquine, CYP2C9 diclofenac, CYP2C19 omeprazole, CYP2D6 dextromethorphan, CYP3A midazolam and testosterone.
At the end of the incubation, the formation of metabolite was monitored by HPLC-MS/MS as the peak area response.

CYP3A4&5 = experiment: in vitro; conditions: human, human liver microsomes, probe testosterone;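 further: Read-out is the metabolite generated from the probe substrate, quantified as HPLC-MS/MS peak area once incubation ends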
CYP2C9 = CYP2C9 (Homo sapiens, UniProt P11712); experiment: CYP inhibition in human liver microsomes (Eurofins ITEMG232); assay type: in vitro ADME; parameters: isoform-specific substrates incubated with human liver microsomes; tissue Eurofins ITEMG232 (protocol number); host or cells: human liver microsomes; conditions: human, probe diclofenac, substrate diclofenac, read-out: CYP2C9 Inh %
[3] = with 1 mM NADPH, read-out: T1/2, + NaDPH
[4] = without NADPH, read-out: T1/2, no NaDPH

T6 sequence (P05177 whole entry, canonical isoform): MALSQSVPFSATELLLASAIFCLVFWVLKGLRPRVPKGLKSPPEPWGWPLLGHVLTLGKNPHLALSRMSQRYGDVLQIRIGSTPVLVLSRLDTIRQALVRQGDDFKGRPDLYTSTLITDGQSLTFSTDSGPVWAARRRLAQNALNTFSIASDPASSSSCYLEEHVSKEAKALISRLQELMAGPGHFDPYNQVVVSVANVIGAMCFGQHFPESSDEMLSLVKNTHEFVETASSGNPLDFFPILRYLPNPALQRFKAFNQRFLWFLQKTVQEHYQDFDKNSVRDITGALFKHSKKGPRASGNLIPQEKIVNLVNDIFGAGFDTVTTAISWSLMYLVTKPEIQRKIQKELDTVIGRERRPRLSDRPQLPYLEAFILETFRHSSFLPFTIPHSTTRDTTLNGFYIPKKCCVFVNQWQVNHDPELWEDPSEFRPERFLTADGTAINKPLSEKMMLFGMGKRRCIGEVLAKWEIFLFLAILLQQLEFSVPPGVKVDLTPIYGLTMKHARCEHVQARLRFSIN
T2 sequence (P10635 whole entry, canonical isoform): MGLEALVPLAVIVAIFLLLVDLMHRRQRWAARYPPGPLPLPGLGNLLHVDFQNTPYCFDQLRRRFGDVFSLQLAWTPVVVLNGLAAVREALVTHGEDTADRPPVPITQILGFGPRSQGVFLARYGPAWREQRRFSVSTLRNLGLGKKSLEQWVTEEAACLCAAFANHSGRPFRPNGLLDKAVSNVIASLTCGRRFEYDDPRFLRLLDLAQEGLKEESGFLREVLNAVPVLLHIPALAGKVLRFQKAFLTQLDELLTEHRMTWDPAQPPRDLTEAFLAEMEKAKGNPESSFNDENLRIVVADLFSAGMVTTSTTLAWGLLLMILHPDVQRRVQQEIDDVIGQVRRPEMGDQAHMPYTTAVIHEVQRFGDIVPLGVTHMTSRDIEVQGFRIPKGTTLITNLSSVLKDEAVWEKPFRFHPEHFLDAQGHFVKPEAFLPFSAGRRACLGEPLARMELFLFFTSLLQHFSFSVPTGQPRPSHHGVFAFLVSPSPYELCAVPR
CYP2C9, sequence (P11712 whole entry, canonical isoform): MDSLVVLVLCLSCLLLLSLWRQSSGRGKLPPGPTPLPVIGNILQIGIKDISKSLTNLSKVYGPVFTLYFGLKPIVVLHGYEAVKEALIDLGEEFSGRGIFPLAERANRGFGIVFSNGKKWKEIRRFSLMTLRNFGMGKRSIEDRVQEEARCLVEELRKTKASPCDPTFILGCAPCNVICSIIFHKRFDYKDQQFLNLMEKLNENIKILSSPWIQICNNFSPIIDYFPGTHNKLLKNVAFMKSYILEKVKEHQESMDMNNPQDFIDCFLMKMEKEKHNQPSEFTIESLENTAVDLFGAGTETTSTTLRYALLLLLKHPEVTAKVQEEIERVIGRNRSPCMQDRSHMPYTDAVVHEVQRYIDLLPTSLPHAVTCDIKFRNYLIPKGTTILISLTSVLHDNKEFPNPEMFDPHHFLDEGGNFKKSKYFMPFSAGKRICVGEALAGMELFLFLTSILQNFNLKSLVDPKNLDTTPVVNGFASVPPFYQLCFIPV
CYP3A4, sequence (P08684 whole entry, canonical isoform): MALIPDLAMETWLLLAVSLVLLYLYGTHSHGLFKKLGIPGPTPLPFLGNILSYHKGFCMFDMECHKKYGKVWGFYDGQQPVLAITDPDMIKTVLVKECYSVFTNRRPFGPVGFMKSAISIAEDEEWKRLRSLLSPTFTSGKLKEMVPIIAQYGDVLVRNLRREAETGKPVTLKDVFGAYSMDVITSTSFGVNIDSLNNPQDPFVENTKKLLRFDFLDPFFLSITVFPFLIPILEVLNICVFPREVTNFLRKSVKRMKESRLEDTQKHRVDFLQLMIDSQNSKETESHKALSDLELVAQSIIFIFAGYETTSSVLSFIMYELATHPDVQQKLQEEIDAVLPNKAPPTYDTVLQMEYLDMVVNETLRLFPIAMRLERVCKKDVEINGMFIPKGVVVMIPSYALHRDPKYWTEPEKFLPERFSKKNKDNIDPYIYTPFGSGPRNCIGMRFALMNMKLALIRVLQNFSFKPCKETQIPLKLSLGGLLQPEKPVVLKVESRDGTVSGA
T4 sequence (P33261 whole entry, canonical isoform): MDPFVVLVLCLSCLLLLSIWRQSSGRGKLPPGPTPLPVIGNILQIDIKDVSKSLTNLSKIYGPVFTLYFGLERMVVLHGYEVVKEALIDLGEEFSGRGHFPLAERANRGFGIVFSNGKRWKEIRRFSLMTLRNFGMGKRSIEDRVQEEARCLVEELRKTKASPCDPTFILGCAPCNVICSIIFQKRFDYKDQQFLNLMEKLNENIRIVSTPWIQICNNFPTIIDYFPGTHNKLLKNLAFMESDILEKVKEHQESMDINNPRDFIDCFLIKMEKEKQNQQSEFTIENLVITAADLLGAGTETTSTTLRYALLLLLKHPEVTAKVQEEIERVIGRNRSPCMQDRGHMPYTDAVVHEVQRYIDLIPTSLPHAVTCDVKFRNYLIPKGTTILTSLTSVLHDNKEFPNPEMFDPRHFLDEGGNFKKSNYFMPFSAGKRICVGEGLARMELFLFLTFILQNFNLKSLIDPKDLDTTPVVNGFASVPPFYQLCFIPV

Compound | inhibition at 10 µM (CYP2B6) | inhibition at 10 µM (CYP3A4) | inhibition at 10 µM (CYP2D6) | inhibition at 10 µM (CYP2C8) | half-life at 1 μM [1, 3] | half-life at 1 μM [1, 4] | inhibition at 10 µM (CYP2C19) | Ki [2] | IC50 [2] | inhibition at 10 µM (CYP1A2) | inhibition at 10 µM (CYP3A4&5) | inhibition at 10 µM (CYP2C9)
CC(C)Cc1ccc(S(=O)(=O)Nc2ncc(Br)cn2)c(-c2ccc(Cn3ccnc3C(C)(C)C)cc2)c1 [Example 1, N-(5-Bromopyrimidin-2-yl)-4′-((2-(tert-butyl)-1H-imidazol-1-yl)methyl)-5-isobutyl-[1,1′-biphenyl]-2-sulfonamide] | 19.5% | 41.7% | 14.1% | 87.8% | > 1 h | > 1 h | 37.2% | 2.12 nM | 4.2 nM | 85.4% | 18.2% | 60.5%
CC(C)Cc1ccc(S(=O)(=O)Nc2nccs2)c(-c2ccc(Cn3ccnc3C(C)(C)C)c(F)c2)c1 [Example 8, 4′-((2-(tert-Butyl)-1H-imidazol-1-yl)methyl)-3′-fluoro-5-isobutyl-N-(thiazol-2-yl)-[1,1′-biphenyl]-2-sulfonamide] | 55% | 0.4% | 32.6% | 88.3% | 0.567 h | > 1 h | 71.2% | 2.92 nM | 5.85 nM | 43% | 42.6% | 86.6%
CC(C)Cc1ccc(S(=O)(=O)Nc2ncc(Cl)cn2)c(-c2ccc(Cn3ccnc3C(C)(C)C)c(F)c2)c1 [Example 10, 4′-((2-(tert-Butyl)-1H-imidazol-1-yl)methyl)-N-(5-chloropyrimidin-2-yl)-3′-fluoro-5-isobutyl-[1,1′-biphenyl]-2-sulfonamide] | 58.3% | 32.1% | 31.9% | 93.2% | > 1 h | > 1 h | 55.3% | 1.5 nM | 3 nM | 37.7% | -17.5% | 87%
CC(C)Cc1ccc(S(=O)(=O)Nc2ncc(Br)cn2)c(-c2ccc(Cn3ccnc3C(C)(C)C)c(F)c2)c1 [Example 11, N-(5-Bromopyrimidin-2-yl)-4′-((2-(tert-butyl)-1H-imidazol-1-yl)methyl)-3′-fluoro-5-isobutyl-[1,1′-biphenyl]-2-sulfonamide] | 48% | 16.1% | 20% | 89.6% | > 1 h | > 1 h | 47.5% | 1.54 nM | 3.07 nM | 14.3% | -19.3% | 82%
Cc1nc(NS(=O)(=O)c2ccc(CC(C)C)cc2-c2ccc(Cn3ccnc3C(C)(C)C)cc2)oc1C [Example 13, 4′-((2-(tert-Butyl)-1H-imidazol-1-yl)methyl)-N-(4,5-dimethyloxazol-2-yl)-5-isobutyl-[1,1′-biphenyl]-2-sulfonamide] | 30.4% | -48.7% | 17.6% | 71.3% | 0.567 h | > 1 h | 52.1% | 22.9 nM | 45.8 nM | 19.8% | -2.8% | 50.9%
COc1ccc(NS(=O)(=O)c2ccc(CC(C)C)cc2-c2ccc(Cn3ccnc3C(C)(C)C)cc2)nn1 [Example 14, 4′-((2-(tert-Butyl)-1H-imidazol-1-yl)methyl)-5-isobutyl-N-(6-methoxypyridazin-3-yl)-[1,1′-biphenyl]-2-sulfonamide] | 25.9% | 10.3% | 24.6% | 74.3% | 0.333 h | > 1 h | 58.4% | 2.6 nM | 5.2 nM | 30% | 24.8% | 55.5%
COc1ncnc(OC)c1NS(=O)(=O)c1ccc(CC(C)C)cc1-c1ccc(Cn2ccnc2C(C)(C)C)cc1 [Example 19, 4′-((2-(tert-Butyl)-1H-imidazol-1-yl)methyl)-N-(4,6-dimethoxypyrimidin-5-yl)-5-isobutyl-[1,1′-biphenyl]-2-sulfonamide] | 27.5% | 73% | 45.2% | 54.3% | 0.15 h | > 1 h | 74.8% |  |  | 21.7% | 63% | 87.6%
Cc1nccn1Cc1ccc(-c2cc(CC(C)C)sc2S(=O)(=O)Nc2ncccn2)cc1F [Example 44, 3-(3-Fluoro-4-((2-methyl-1H-imidazol-1-yl)methyl)phenyl)-5-isobutyl-N-(pyrimidin-2-yl)thiophene-2-sulfonamide] | 14% | 35% | 9% | 43% | > 1 h | > 1 h | 64% |  |  | 33% | 67% | 30%
CCc1nccn1Cc1ccc(-c2cc(CC(C)C)sc2S(=O)(=O)Nc2ncccn2)cc1F [Example 45, 3-(4-((2-Ethyl-1H-imidazol-1-yl)methyl)-3-fluorophenyl)-5-isobutyl-N-(pyrimidin-2-yl)thiophene-2-sulfonamide] | 16% | 15% | 13% | 64% | > 1 h | > 1 h | 65% |  |  | 54% | 62% | 20%
